As usually defined, the GI50 is the concentration giving 50% growth inhibition.

Experimental findings from ChEMBL document CHEMBL1201862, “PubChem BioAssay data set” (2004) are described below.

Some test systems named below: 786-0; COLO 205; HCT-15; HOP-92; LOX IMVI; MDA-N; NCI-H226; NCI-H23; NCI-H460; NCI/ADR-RES; OVCAR-3; SF-295; SK-OV-3; SN12C; SR; SW-620; T47D; HCC 2998; HT-29; A549.
Test in all cases: DTP human tumour cell line panel, 48 h

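1) Cells in 96-well plates. 2) Compound, 48 h, 5 concentrations. 3) Linear interpolation between surrounding doses. 4) Unreached endpoint = highest concentration. GI50 marks 50% less growth.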 Calls of active or inactive are those of the source. No stated cut-off is given here; in the data, active = GI50 up to about 1.1 µM and inactive = higher.

For the compound `COc1cccc(/N=N/N2CCCC2)c1`, the GI50 is > 100 µM (inactive) in the assay on 786-0; > 100 µM (inactive) in the assay on COLO 205; more than 100 µM in the assay on HCT-15; > 100 µM (inactive) with HOP-92; 40.2 µM (inactive) with LOX IMVI; 41.4 µM (inactive) in the assay on MDA-N. The GI50 was > 100 µM (inactive) in the assay with NCI-H226; > 100 µM (inactive) with NCI-H23; > 100 µM (inactive) in the assay on NCI-H460; > 100 µM (inactive) with NCI/ADR-RES; > 100 µM (inactive) with OVCAR-3; 26.5 µM (inactive) with SF-295. Also, the GI50 was > 100 µM (inactive) in the assay with SK-OV-3; > 100 µM (inactive) with SN12C; 40.2 µM (inactive) in the assay on SR; > 100 µM (inactive) in the assay with SW-620; > 100 µM (inactive) in the assay on T47D.
Regarding `C1=Nc2sc3c(c2C2=NCCN12)CCCC3`, the GI50 was 17.4 µM (inactive) in the assay on 786-0; 23.3 µM (inactive) with COLO 205; 11.8 µM (inactive) in the assay on HCC 2998; 16.4 µM in the assay on HCT-15; 18.1 µM (inactive) in the assay on HT-29; 14.7 µM (inactive) with LOX IMVI. The GI50 in the assay with MDA-N is 20.1 µM (inactive); with NCI-H226, 13.3 µM (inactive); with NCI-H23 it was 15.6 µM (inactive); with NCI-H460, 17.5 µM (inactive); in the assay on NCI/ADR-RES, 18.2 µM (inactive); in the assay on OVCAR-3 it was 17.6 µM (inactive). In addition, the GI50 with SF-295 was 21.5 µM (inactive); with SR, 21.2 µM (inactive); in the assay with SW-620, 21 µM (inactive); in the assay with T47D it was 17.7 µM (inactive).
As for `CCOP(=O)(OCC)OC1CC(n2cnc3c(N(CC)CC)ncnc32)OC1CO[Si](C)(C)C(C)(C)C` (stereo not drawn), the GI50 is 16.1 µM (inactive) in the assay with 786-0; 15.7 µM (inactive) in the assay on A549; 18.5 µM (inactive) in the assay with COLO 205; 23.2 µM (inactive) with HCC 2998; 21.4 µM with HCT-15; 16.6 µM (inactive) in the assay with HT-29. Also, the GI50 is 16.2 µM (inactive) with LOX IMVI; 18 µM (inactive) in the assay with MDA-N; 19.2 µM (inactive) in the assay with NCI-H226; 17 µM (inactive) in the assay with NCI-H23; 15 µM (inactive) in the assay with NCI-H460; 20.8 µM (inactive) in the assay on NCI/ADR-RES. For the same compound, the GI50 in the assay with OVCAR-3 was 20.3 µM (inactive); in the assay with SF-295 it was 16.7 µM (inactive); in the assay with SK-OV-3, 17.5 µM (inactive); in the assay with SN12C it was 19.4 µM (inactive); with SR, 31.3 µM (inactive); in the assay on SW-620, 16.2 µM (inactive). In addition, in the assay with T47D, the GI50 was 12 µM (inactive).
As to `Cc1[nH]c2ccccc2c1/C=N/c1ccc(Oc2ccccc2)cc1`, the GI50 was 16.3 µM (inactive) in the assay with 786-0; 17.1 µM (inactive) with A549; 15.9 µM (inactive) with COLO 205; 18.6 µM with HCT-15; 12.7 µM (inactive) with HOP-92; 17.3 µM (inactive) in the assay on HT-29. Also, the GI50 was 15.5 µM (inactive) in the assay with LOX IMVI; 17.2 µM (inactive) with MDA-N; 16 µM (inactive) in the assay with NCI-H23; 20.4 µM (inactive) in the assay on NCI-H460; 19.1 µM (inactive) in the assay with NCI/ADR-RES; 14.2 µM (inactive) in the assay on OVCAR-3. The GI50 with SF-295 is 14 µM (inactive); in the assay with SK-OV-3 it was 17.5 µM (inactive); with SN12C it was 16.6 µM (inactive); in the assay on SR it was 19.1 µM (inactive); with SW-620, 18 µM (inactive); in the assay on T47D, 18.5 µM (inactive).
Turning to `CCOn1c(C2(CC3CCN(C(=O)c4ccccc4)CC3)OCCO2)cc2ccccc21`, the GI50 with 786-0 was 16.5 µM (inactive); in the assay on A549 it was 16.9 µM (inactive); in the assay with COLO 205, 16.4 µM (inactive); in the assay with HCT-15 it was 22.5 µM; with HOP-92, 10.9 µM (inactive); in the assay with HT-29, 18.9 µM (inactive). Also, the GI50 in the assay with LOX IMVI was 15.7 µM (inactive); in the assay on MDA-N, 16.5 µM (inactive); with NCI-H226 it was 0.084 µM (active); in the assay on NCI-H23, 19.5 µM (inactive); in the assay with NCI-H460, 14.1 µM (inactive); with NCI/ADR-RES, 16.9 µM (inactive). Besides, the GI50 with OVCAR-3 was 16.4 µM (inactive); with SF-295, 15.8 µM (inactive); in the assay on SK-OV-3, 19.3 µM (inactive); with SN12C, 17.2 µM (inactive); in the assay on SR, 6.27 µM (inactive); with SW-620 it was 15.8 µM (inactive). Further, the GI50 with T47D is 18.9 µM (inactive).
With `CC(C)CC1c2[nH]c3ccccc3c2C[C@H]2C(=O)NC(CCCCNC(=O)OC(C)(C)C)C(=O)N12` (stereo partly drawn), the GI50 in the assay with 786-0 was 20.9 µM (inactive); in the assay with A549 it was 33.7 µM (inactive); in the assay with COLO 205, 27.7 µM (inactive); with HCT-15, 31.8 µM; in the assay with HOP-92, 31 µM (inactive); with HT-29, 23.5 µM (inactive). Besides, the GI50 is 24.6 µM (inactive) in the assay on LOX IMVI; 37.5 µM (inactive) in the assay with MDA-N; 55.3 µM (inactive) in the assay with NCI-H226; 33 µM (inactive) with NCI-H23; 33.4 µM (inactive) with NCI/ADR-RES; 2.36 µM (inactive) in the assay on OVCAR-3. The GI50 was 12.3 µM (inactive) in the assay on SF-295; 33.9 µM (inactive) in the assay with SN12C; 11.9 µM (inactive) with SR; 41 µM (inactive) in the assay with SW-620; 0.449 µM (active) in the assay on T47D.
On to `O=S(=O)(O)c1ccc(-c2nnc(-c3ccccn3)nc2-c2ccc(S(=O)(=O)O)o2)o1`, for which the GI50 in the assay on 786-0 was > 100 µM (inactive); in the assay with A549 it was > 100 µM (inactive); in the assay on COLO 205 it was > 100 µM (inactive); with HCT-15, more than 100 µM; in the assay with HOP-92, > 100 µM (inactive); in the assay on HT-29 it was > 100 µM (inactive). Besides, the GI50 in the assay with LOX IMVI, in the assay with MDA-N, in the assay with NCI-H226, in the assay with NCI-H23, with NCI-H460 and in the assay with NCI/ADR-RES was > 100 µM (inactive) throughout. Moreover, the GI50 in the assay on OVCAR-3, in the assay on SF-295, in the assay with SK-OV-3, in the assay on SN12C, in the assay with SR and in the assay on SW-620 was > 100 µM (inactive) throughout. The GI50 in the assay on T47D was > 100 µM (inactive).
Turning to `CCN(CC)CCC(=O)c1ccc(Sc2ccc(F)cc2)cc1`, the GI50 in the assay on 786-0 is 10.8 µM (inactive); with A549, > 100 µM (inactive); in the assay with COLO 205, 21.1 µM (inactive); with HCC 2998, 32.6 µM (inactive); with HCT-15, 17.3 µM; with HT-29, 21.8 µM (inactive). Further, the GI50 was 17.4 µM (inactive) in the assay on LOX IMVI; 25 µM (inactive) with MDA-N; 16 µM (inactive) with NCI-H226; 17.7 µM (inactive) in the assay with NCI-H23; 17.7 µM (inactive) with NCI-H460; 24.3 µM (inactive) in the assay on NCI/ADR-RES. Besides, the GI50 is 18.8 µM (inactive) in the assay with OVCAR-3; 19.3 µM (inactive) with SF-295; 23.3 µM (inactive) in the assay with SK-OV-3; 21.7 µM (inactive) with SN12C; 12.9 µM (inactive) in the assay with SR; 19.9 µM (inactive) in the assay on SW-620. Further, the GI50 in the assay on T47D is 21.2 µM (inactive).
Take `c1cc2c(cc1[C@@H]1OC[C@@H]3[C@H]1CO[C@H]3c1ccc3c(c1)OCO3)OCO2`: the GI50 is > 100 µM (inactive) in the assay with 786-0; 62.2 µM (inactive) with A549; > 100 µM (inactive) in the assay with COLO 205; > 100 µM (inactive) with HCC 2998; more than 100 µM in the assay on HCT-15; 69.3 µM (inactive) in the assay with HOP-92. The GI50 with HT-29 was 60.8 µM (inactive); in the assay on LOX IMVI, 36.2 µM (inactive); in the assay with MDA-N it was 80.9 µM (inactive); in the assay on NCI-H226, > 100 µM (inactive); with NCI-H23, 65.9 µM (inactive); in the assay on NCI-H460, > 100 µM (inactive). In addition, the GI50 was 36.6 µM (inactive) in the assay on NCI/ADR-RES; 43.5 µM (inactive) in the assay with OVCAR-3; > 100 µM (inactive) in the assay with SF-295; > 100 µM (inactive) with SK-OV-3; > 100 µM (inactive) with SN12C; 58.3 µM (inactive) in the assay on SW-620. For the same compound, the GI50 with T47D is 46.3 µM (inactive).
As to `CCOC(=O)CC1Nc2ccccc2C12CCc1c([nH]c3ccccc13)C2C(=O)OCC` (stereo not drawn), the GI50 is 47.5 µM (inactive) in the assay with 786-0; 14.3 µM (inactive) with A549; 5.12 µM (inactive) in the assay on COLO 205; 84.9 µM (inactive) in the assay with HCC 2998; 13.1 µM in the assay on HCT-15; 11.6 µM (inactive) with HT-29. The GI50 in the assay with LOX IMVI was 26.5 µM (inactive); in the assay on MDA-N, 4.65 µM (inactive); with NCI-H23, 51.2 µM (inactive); in the assay with NCI-H460 it was 14.2 µM (inactive); in the assay with NCI/ADR-RES, 12.6 µM (inactive); with OVCAR-3 it was 22.2 µM (inactive). Moreover, the GI50 with SF-295 was 3.61 µM (inactive); in the assay on SK-OV-3, 6.4 µM (inactive); in the assay with SN12C it was 24.7 µM (inactive); in the assay with SR, 17.3 µM (inactive); in the assay on SW-620, 6.87 µM (inactive); with T47D, 10.4 µM (inactive).
`CN(Cc1cnc2nc(N)nc(N)c2n1)c1ccc(C(=O)NC2CCCCC2)cc1`: the GI50 in the assay on 786-0 is 11.6 µM (inactive); with COLO 205, 31.3 µM (inactive); with HCT-15, 20.8 µM; in the assay on HT-29, 16.2 µM (inactive); in the assay with LOX IMVI, 5.51 µM (inactive); in the assay with MDA-N, 7.69 µM (inactive). The GI50 in the assay on NCI-H226 is 23.1 µM (inactive); in the assay on NCI-H23, 36.1 µM (inactive); in the assay on NCI-H460, 20.1 µM (inactive); with NCI/ADR-RES, > 100 µM (inactive); with OVCAR-3, 56.2 µM (inactive); in the assay with SF-295 it was 32.4 µM (inactive). The GI50 in the assay with SK-OV-3 is 54.6 µM (inactive); in the assay with SN12C, 75 µM (inactive); with SR it was 33.2 µM (inactive); in the assay with SW-620, 11.1 µM (inactive); in the assay with T47D, 87.1 µM (inactive).
